According to US9745317B2, “Heterocyclic compounds and their use as dopamine D1 ligands” (PFIZER INC., priority 2014, dated 2017):
Counter-ions that a name gives are not always drawn.

biological target: Human D1 Receptor (Homo sapiens (Human), UniProt P21728); assay: Human D1 receptor binding assay ([^3H]-SCH23390 competition binding); conditions: over-expressing LTK human cell lines; 0.5 nM [^3H]-SCH23390; 30 min at 37° C.; footnote a = single determination, b = geometric mean of ≧5 determinations; read-out: Human D1 Receptor Binding, Ki (nM); Geometric mean of 2-4 determinations (unless otherwise indicated)
Sequence (P21728 whole entry): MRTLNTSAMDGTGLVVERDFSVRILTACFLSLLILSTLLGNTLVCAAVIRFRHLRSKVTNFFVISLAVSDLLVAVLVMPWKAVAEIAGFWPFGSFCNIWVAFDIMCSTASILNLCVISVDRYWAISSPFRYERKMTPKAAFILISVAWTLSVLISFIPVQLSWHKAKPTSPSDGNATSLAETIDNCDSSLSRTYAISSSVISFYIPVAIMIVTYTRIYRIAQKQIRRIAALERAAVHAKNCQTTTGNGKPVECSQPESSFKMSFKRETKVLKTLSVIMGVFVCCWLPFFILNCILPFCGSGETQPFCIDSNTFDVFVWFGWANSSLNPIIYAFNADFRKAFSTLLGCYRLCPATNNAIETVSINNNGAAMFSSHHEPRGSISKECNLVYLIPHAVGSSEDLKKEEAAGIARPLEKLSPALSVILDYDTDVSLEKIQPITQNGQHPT
Protocol: The affinity of the compounds described herein was determined by competition binding assays similar to those described in Ryman-Rasmussen et al., “Differential activation of adenylate cyclase and receptor internalization by novel dopamine D1 receptor agonists”, Molecular Pharmacology 68(4):1039-1048 (2005).
D1 binding assays were performed using over-expressing LTK human cell lines. […] These ligand and tissue concentrations were used in time course studies to determine linearity and equilibrium conditions for binding. Binding was at equilibrium with the specified amount of tissue in 30 minutes at 37° C. […] The pellet was resuspended in assay buffer [50 mM Tris (pH 7.4@ RT) containing 4 mM MgSO4 and 0.5 mM EDTA]. […] Non-specific binding was determined by radioligand binding in the presence of a saturating concentration of (+)-Butaclamol (10 μM), a D1 antagonist. After a 30 minute incubation period at 37° C., assay samples were rapidly filtered through Unifilter-96 GF/B PEI-coated filter plates and rinsed with 50 mM Tris buffer (pH 7.4 at 4° C.). […] The IC50 value (concentration at which 50% inhibition of specific binding occurs) was calculated by linear regression of the concentration-response data in Microsoft Excel. Ki values were calculated according to the Cheng-Prusoff equation: […]

Structure (SMILES) | Ki [nM]
Cc1cc(Oc2nccc3c2CCN3)ccc1-c1c(C)n[nH]c(=O)c1C (single isomer, unassigned; ent-1) [Example 9, 5-[4-(2,3-Dihydro-1H-pyrrolo[3,2-c]pyridin-4-yloxy)-2-methylphenyl]-4,6-dimethylpyridazin-3(2H)-one, ENT-1] | 35.6
Cc1cc(Oc2nccc3c2CCN3)ccc1-c1c(C)n[nH]c(=O)c1C (single isomer, unassigned; ent-2) [Example 10, 5-[4-(2,3-Dihydro-1H-pyrrolo[3,2-c]pyridin-4-yloxy)-2-methylphenyl]-4,6-dimethylpyridazin-3(2H)-one, ENT-2] | 50.5
Cc1cc(Oc2nccc3c2CCO3)ccc1-c1c(C)ncnc1C [Example 1, 4-[4-(4,6-Dimethylpyrimidin-5-yl)-3-methylphenoxy]-2,3-dihydrofuro[3,2-c]pyridine] | 76.8
Cc1cc(Oc2nccc3c2CCO3)ccc1-c1c(C)n[nH]c(=O)c1C [Example 5, 5-[4-(2,3-Dihydrofuro[3,2-c]pyridin-4-yloxy)-2-methylphenyl]-4,6-dimethylpyridazin-3(2H)-one] | 14
Cc1cc(Oc2nccc3c2CCO3)ccc1-c1c(C)n[nH]c(=O)c1C [Example 6, (+)-5-[4-(2,3-Dihydrofuro[3,2-c]pyridin-4-yloxy)-2-methylphenyl]-4,6-dimethylpyridazin-3(2H)-one] | 12.6
Cc1cc(Oc2nccc3c2CCO3)ccc1-c1c(C)n[nH]c(=O)c1C [Example 7, (−)-5-[4-(2,3-Dihydrofuro[3,2-c]pyridin-4-yloxy)-2-methylphenyl]-4,6-dimethylpyridazin-3(2H)-one] | 12.7
Cc1cc(Oc2nccc3c2CCN3)ccc1-c1c(C)n[nH]c(=O)c1C [Example 8, 5-[4-(2,3-Dihydro-1H-pyrrolo[3,2-c]pyridin-4-yloxy)-2-methylphenyl]-4,6-dimethylpyridazin-3(2H)-one] | 8.4
Cc1c(-c2ccc(Oc3nccc4c3CCN4)cc2)n(C)c(=O)[nH]c1=O [Example 12, 6-[4-(2,3-Dihydro-1H-pyrrolo[3,2-c]pyridin-4-yloxy)phenyl]-1,5-dimethylpyrimidine-2,4(1H,3H)-dione] | 11.1
Cc1c(-c2ccc(Oc3nccc4c3CCO4)cc2)n(C)c(=O)[nH]c1=O [Example 13, 6-[4-(2,3-Dihydrofuro[3,2-c]pyridin-4-yloxy)phenyl]-1,5-dimethylpyrimidine-2,4(1H,3H)-dione, trifluoroacetate salt] | 46.1

More lines, now with the values ahead:

Ki [nM] | Structure (SMILES)
202 | Cc1cc(Oc2nccc3c2CCO3)ccc1-c1c(C)ncc(=O)n1C (single isomer, unassigned) [Example 22, (−)-6-[4-(2,3-dihydrofuro[3,2-c]pyridin-4-yloxy)-2-methylphenyl]-1,5-dimethylpyrazin-2(1H)-one]
706 | Cc1cc(Oc2nccc3c2CCO3)ccc1-c1c(C)ncc(=O)n1C (single isomer, unassigned) [Example 23, (+)-6-[4-(2,3-dihydrofuro[3,2-c]pyridin-4-yloxy)-2-methylphenyl]-1,5-dimethylpyrazin-2(1H)-one]
201 | Cc1cc(Oc2nccc3c2CCN3)ccc1-c1c(C)ncc(=O)n1C (single isomer, unassigned) [Example 24, (+)-6-[4-(2,3-dihydro-1H-pyrrolo[3,2-c]pyridin-4-yloxy)-2-methylphenyl]-1,5-dimethylpyrazin-2(1H)-one]
75.8 | Cc1cc(Oc2nccc3c2CCN3)ccc1-c1c(C)ncc(=O)n1C (single isomer, unassigned) [Example 25, (−)-6-[4-(2,3-dihydro-1H-pyrrolo[3,2-c]pyridin-4-yloxy)-2-methylphenyl]-1,5-dimethylpyrazin-2(1H)-one]
4.8 | Cc1cc(Oc2nccc3c2C(O)CO3)ccc1-c1c(C)n[nH]c(=O)c1C (stereo not drawn) [Example 16, 5-{4-[(3-Hydroxy-2,3-dihydrofuro[3,2-c]pyridin-4-yl)oxy]-2-methylphenyl}-4,6-dimethylpyridazin-3(2H)-one]
52.1 | Cc1cc(Oc2nccc3c2CCO3)ccc1-c1c(C)ncc2nccn12 [Example 18, 5-[4-(2,3-dihydrofuro[3,2-c]pyridin-4-yloxy)-2-methylphenyl]-6-methylimidazo[1,2-a]pyrazine]
156 | Cc1cc(Oc2ncnc3c2CCN3)ccc1-c1c(C)ncnc1C [Example 19, 4-[4-(4,6-dimethylpyrimidin-5-yl)-3-methylphenoxy]-6,7-dihydro-5H-pyrrolo[2,3-d]pyrimidine]
446 | Cc1cc(Oc2ncnc3c2CCC3)ccc1-c1c(C)ncnc1C [Example 20, 4-[4-(4,6-dimethylpyrimidin-5-yl)-3-methylphenoxy]-6,7-dihydro-5H-cyclopenta[d]pyrimidine]
82.5 | Cc1cc(Oc2nccc3c2CCO3)ccc1-c1c(C)ncc(=O)n1C [Example 21, 6-[4-(2,3-dihydrofuro[3,2-c]pyridin-4-yloxy)-2-methylphenyl]-1,5-dimethylpyrazin-2(1H)-one]
162 | Cc1n[nH]c(=O)c(C)c1-c1ccc(Oc2nccc3c2CCO3)cc1C#N [Example 26, 5-(2,3-dihydrofuro[3,2-c]pyridin-4-yloxy)-2-(3,5-dimethyl-6-oxo-1,6-dihydropyridazin-4-yl)benzonitrile]
44.4 | Cc1c(-c2ccc(Oc3ncnc4c3CCN4)cc2)n(C)c(=O)[nH]c1=O [Example 27, 6-[4-(6,7-dihydro-5H-pyrrolo[2,3-d]pyrimidin-4-yloxy)phenyl]-1,5-dimethylpyrimidine-2,4(1H,3H)-dione]
202 | Cc1c(-c2ccc(Oc3ncnc4c3CCC4)cc2)n(C)c(=O)[nH]c1=O [Example 28, 6-[4-(6,7-dihydro-5H-cyclopenta[d]pyrimidin-4-yloxy)phenyl]-1,5-dimethylpyrimidine-2,4(1H,3H)-dione]

same assay, conditions: read-out: Human D1 Receptor Binding, Ki (nM); Geometric mean of 2-4 determinations (unless otherwise indicated)

Structure (SMILES) | Ki [nM]
Cc1cc(Oc2nccc3c2CCN3)ccc1-c1c(C)ncnc1C [Example 2, 4-[4-(4,6-Dimethylpyrimidin-5-yl)-3-methylphenoxy]-2,3-dihydro-1H-pyrrolo[3,2-c]pyridine] | 78.1
Cc1n[nH]c(=O)c(C)c1-c1ccc(Oc2nccc3c2CCN3)cc1 [Example 4, 5-[4-(2,3-Dihydro-1H-pyrrolo[3,2-c]pyridin-4-yloxy)phenyl]-4,6-dimethylpyridazin-3(2H)-one] | 14
Cc1n[nH]c(=O)c(C)c1-c1ccc(Oc2ncnc3c2CCN3)cc1 [Example 11, 5-[4-(6,7-Dihydro-5H-pyrrolo[2,3-d]pyrimidin-4-yloxy)phenyl]-4,6-dimethylpyridazin-3(2H)-one] | 60.4
Cc1cc(Oc2nccc3c2CCCO3)ccc1-c1c(C)n[nH]c(=O)c1C [Example 14, 5-[4-(3,4-Dihydro-2H-pyrano[3,2-c]pyridin-5-yloxy)-2-methylphenyl]-4,6-dimethylpyridazin-3(2H)-one] | 70.3
Cc1cc(Oc2nccc3c2CCCN3)ccc1-c1c(C)n[nH]c(=O)c1C [Example 15, 4,6-Dimethyl-5-[2-methyl-4-(1,2,3,4-tetrahydro-1,6-naphthyridin-5-yloxy)phenyl]pyridazin-3(2H)-one] | 18.1
Cc1cc(Oc2nccc3c2C(O)CO3)ccc1-c1c(C)ncnc1C (stereo not drawn) [Example 17, 4-[4-(4,6-Dimethylpyrimidin-5-yl)-3-methylphenoxy]-2,3-dihydrofuro[3,2-c]pyridin-3-ol] | 28.9
